Assay results published in PMC6263107 (Journal of Enzyme Inhibition and Medicinal Chemistry, 2018).
Several values for one entry are separate records, joined by “and”; a condition that tells them apart may be missing. Identical values can stand only once.

Tests used:
eqBuChE = target: T1, eqBuChE (Equus caballus, UniProt P81908); test: biochemical; conditions: at 10 μM; Table 2 footnote b
T1 construct: serum horse BuChE (eqBuChE); from tissue; host or cells: horse serum
Protocol: (§1) Ellman’s protocol was followed to perform the anticholinesterasic activity. Briefly, the reaction was carried out in a final volume of 3 ml of a phosphate-buffered solution (0.1 M) at pH =8.0 containing (2.625 µl, 0.35 mM) of 5,5’-dithiobis-2-nitrobenzoic acid (DTNB), 40 µl 1% w/v Bovine Albumin Serum phosphate-buffered solution (BSA), (29 µl, 0.035 U/ml) of EeAChE or (60 µl, 0.05 U/ml) of eqBuChE, and 3 µl of tested compound, which were incubated for 10 min. Then, the acetylthiocholine iodide or butyrylthiocholine was added, and the reaction was incubated for additional 15 min. The activity in absence of compound was used as control.

EeAChE = EeAChE (Electrophorus electricus, UniProt O42275); test: biochemical
Chain of EeAChE (O42275 24-633): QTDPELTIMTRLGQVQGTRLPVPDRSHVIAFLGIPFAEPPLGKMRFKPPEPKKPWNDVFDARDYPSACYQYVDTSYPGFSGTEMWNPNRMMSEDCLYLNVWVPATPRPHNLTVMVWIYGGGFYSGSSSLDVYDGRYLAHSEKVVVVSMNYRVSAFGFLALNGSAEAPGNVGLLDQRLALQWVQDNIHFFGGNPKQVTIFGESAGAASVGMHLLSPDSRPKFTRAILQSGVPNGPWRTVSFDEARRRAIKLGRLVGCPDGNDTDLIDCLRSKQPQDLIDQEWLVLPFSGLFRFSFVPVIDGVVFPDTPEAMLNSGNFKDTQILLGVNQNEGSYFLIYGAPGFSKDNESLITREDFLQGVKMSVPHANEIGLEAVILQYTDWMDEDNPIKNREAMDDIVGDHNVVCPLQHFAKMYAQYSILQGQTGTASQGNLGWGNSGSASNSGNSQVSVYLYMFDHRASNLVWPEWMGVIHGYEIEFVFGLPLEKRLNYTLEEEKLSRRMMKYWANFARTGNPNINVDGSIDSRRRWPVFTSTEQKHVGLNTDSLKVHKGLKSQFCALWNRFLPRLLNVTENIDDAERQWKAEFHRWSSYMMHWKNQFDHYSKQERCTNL
Protocol: as §1

in vitro = assay type: cell-based; conditions: human, HepG2 cells, percent of cell viability vs DMSO-treated control, read-out: HepG2 cell viability
Protocol: (§2) The culture medium was refreshed after 24 h of incubation and 100 µl of six different concentrations (1–1000 µM) of test compounds or DMSO (0.1%) were then added. The cell viability was monitored by colourimetric assay with 3-[4,5-dimethylthiazol-2-yl]-2,5-diphenyl-tetrazolium bromide (MTT).
(§3) In this sense, all new KTs were submitted to the in vitro cell viability test (MTT assay) using human hepatocellular carcinoma cell line (HepG2)[26], as the most accepted probe to evaluate hepatotoxic effects. For this experiment, six different concentrations from 1 to 1000 µM were used.

HepG2 cells = test: in vitro; assay type: cell-based; conditions: at 1000 µM
Protocol: as §2, §3

SH-SY5Y cells [1] = test: Neuroprotection against oligomycin/rotenone-induced cell death (MTT); assay type: cell-based, human; conditions: O 10 µM / R 30 µM
Protocol: (§4) SH-SY5Y cell culture and treatment with compounds 2b–d and 2f. The cultures of human SH-SY5Y neuroblastoma cells kept under a CO2/air (5%/95%) humidified atmosphere at 37 °C for 24 h were treated with 100 µl of the test compounds or DMSO (0.1%) in DMEM/F12 (1:1) medium supplemented with 1% fetal bovine serum, 1X non-essential amino acids, 100 units/ml penicillin and 10 mg/ml streptomycin. Treatment medium was renewed every day for up to 48 h of treatment. MTT assay was then performed.
(§5) SH-SY5Y cells were seeded in 96-well culture plates at a density of 8 × 10^4 cells per well in DMEM/F12 (1:1) medium supplemented with 10% fetal bovine serum, 1X non-essential amino acids, 100 units/mL penicillin and 10 mg/mL streptomycin (Dutscher, France). After 24 h of incubation, the cultures were treated with 100 µl of the test compounds or DMSO (0.1%) in the same medium. Following 24 h, the cells were co-incubated with oligomycin A (10 µM)/rotenone (30 µM) (Sigma, France) or Aβ 1–40 (30 µM) with or without the tested compounds 2b–d and 2f at nontoxic concentrations against cells for an additional period of 24 h. MTT assay was then performed to determine the % of cell viability.
(§6) The ability to prevent the human neuroblastoma cell line SH-SY5Y cell death induced by toxic insults such as Αβ 1–40, implicated in ROS production and apoptosis-related signalling pathways, and oligomycin/rotenone (O/R)[39], was then assayed to determine the neuroprotective capacity of the four less hepatotoxic KTs 2b–d and 2f at nontoxic concentration against SH-SY5Y 3 and 10 µM, using melatonin and KA as reference molecules. For the evaluation of the neuroprotective effect, the cytotoxicity of O/R (10 µM/30 µM) on SH-SY5Y cell viability was determined as well as the toxicity of the selected KTs 2b–d and 2f at.

SH-SY5Y cells [2] = test: Neuroprotection against Aβ1–40 peptide-induced cell death (MTT); assay type: cell-based, human; conditions: for Aβ1–40 (%) neuroprotection: Aβ 1–40 30 µM
Protocol: as §4, §5, §6

hAChE = target: T2, hAChE (Homo sapiens, UniProt P22303); test: biochemical; conditions: mean ± SEM
T2 construct: 10 µl of cholinesterase obtained from human erythrocyte hemolyzate, out of blood samples; from tissue; host or cells: human erythrocyte hemolysate from blood samples
T2 sequence (P22303 32-617 isoform P22303-2 limits assumed): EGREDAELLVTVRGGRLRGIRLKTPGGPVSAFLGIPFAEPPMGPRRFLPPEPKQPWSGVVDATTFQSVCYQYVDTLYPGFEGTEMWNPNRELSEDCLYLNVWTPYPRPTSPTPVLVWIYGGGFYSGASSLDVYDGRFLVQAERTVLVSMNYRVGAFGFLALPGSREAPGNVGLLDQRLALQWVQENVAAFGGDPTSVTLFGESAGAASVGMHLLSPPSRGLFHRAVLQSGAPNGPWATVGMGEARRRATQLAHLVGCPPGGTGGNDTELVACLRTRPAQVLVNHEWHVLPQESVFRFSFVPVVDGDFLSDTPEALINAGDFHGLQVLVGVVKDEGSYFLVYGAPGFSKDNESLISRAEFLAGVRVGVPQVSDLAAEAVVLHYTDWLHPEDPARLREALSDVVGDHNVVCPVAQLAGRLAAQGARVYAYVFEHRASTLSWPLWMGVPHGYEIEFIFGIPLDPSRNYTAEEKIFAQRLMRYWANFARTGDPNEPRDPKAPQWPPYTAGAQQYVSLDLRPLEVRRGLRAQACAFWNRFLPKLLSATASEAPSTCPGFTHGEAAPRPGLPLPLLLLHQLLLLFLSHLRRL
Protocol: This blend was preincubated for 5 min and 20 µl of 0.01 M substrate (ATCh or BTCh) was added to initiate the reaction. […] The IC50 values are expressed as a mean ± SEM.
Next, as planned at the beginning of the project, the analysis of the antioxidant capacity of KT 2a–d, 2f–h, and 2l was carried out.

[3] = Oxygen radical absorbance capacity assay (ORAC-FL); conditions: for ORAC: ORAC-FL, Trolox equivalents
Protocol: The antioxidant activity of KTs was determined using the ORAC-FL method described by Dávalos et al.[30] using fluorescein as a fluorescent probe with minor modification. Briefly, fluorescein and antioxidant were incubated in a black 96-well microplate (Nunc) for 15 min at 37 °C. The 2,2’-azobis(amidinopropane) dihydrochloride (AAPH) was then added quickly using the built-in injector of Varioskan Flash plate reader (Thermo Scientific).
Results are expressed in the Trolox equivalents (TE) unit in relation to radical scavenging properties of Trolox.

SH-SY5Y cells [4] = test: Toxicity of compounds on SH-SY5Y cells (MTT); assay type: cell-based; conditions: at 10 µM
Protocol: as §4

SH-SY5Y cells [5] = test: Neuroprotection against oligomycin/rotenone-induced cell death (MTT); assay type: cell-based, human; conditions: compound 1 µM; O 10 µM / R 30 µM
SH-SY5Y cells [6] = test: Neuroprotection against Aβ1–40 peptide-induced cell death (MTT); assay type: cell-based, human; conditions: compound 1 µM; Aβ 1–40 30 µM

T1 sequence (P81908 whole entry): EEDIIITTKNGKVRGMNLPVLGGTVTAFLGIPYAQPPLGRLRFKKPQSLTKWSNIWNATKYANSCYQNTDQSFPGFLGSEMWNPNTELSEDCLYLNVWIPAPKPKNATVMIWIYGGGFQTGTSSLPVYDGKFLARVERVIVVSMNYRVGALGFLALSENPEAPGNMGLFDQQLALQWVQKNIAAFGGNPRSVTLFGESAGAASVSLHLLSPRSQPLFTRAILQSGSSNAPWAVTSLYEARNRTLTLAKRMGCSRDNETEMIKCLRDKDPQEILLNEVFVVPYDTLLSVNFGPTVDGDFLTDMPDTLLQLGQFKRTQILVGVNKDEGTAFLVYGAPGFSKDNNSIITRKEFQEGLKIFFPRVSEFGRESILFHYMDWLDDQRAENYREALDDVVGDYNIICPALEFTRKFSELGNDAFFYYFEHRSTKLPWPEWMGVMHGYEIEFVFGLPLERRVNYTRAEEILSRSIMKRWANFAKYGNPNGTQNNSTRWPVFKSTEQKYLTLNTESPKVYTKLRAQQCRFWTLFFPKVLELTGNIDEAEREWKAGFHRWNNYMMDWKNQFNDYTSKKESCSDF

COc1cccc(C2c3oc(CO)cc(=O)c3Oc3nc4c(c(N)c32)CCCC4)c1 (centres unmarked) [KT2d, 11-amino-2-(hydroxymethyl)-12-(3-methoxyphenyl)-7,9,10,12-tetrahydropyrano [2',3':5,6] pyrano[2,3-b]quinolin-4(8H)-one]
inhibition at 10 µM (eqBuChE): < 50%
IC50 (EeAChE; mean ± SEM): 0.64 ± 0.06 µM
fold less active than tacrine (EeAChE) (EeAChE; ratio of IC50 values vs tacrine): approximately 20 fold
viability at 1 µM (in vitro; 1 µM): 101 ± 2.5%
viability at 3 µM (in vitro; 3 µM): 98 ± 4.1%
viability at 10 µM (in vitro; 10 µM): 102 ± 3.2%
viability at 30 µM (in vitro; 30 µM): 102 ± 1.8%
viability at 100 µM (in vitro; 100 µM): 99 ± 1.1%
viability at 300 µM (in vitro; 300 µM): 87.2 ± 6.1%
viability at 1000 µM (in vitro; 1000 µM): 65.5 ± 1.3%
fold less toxic than tacrine (HepG2) (HepG2 cells): six-fold less-hepatotoxic than tacrine
O/R (%) neuroprotection (SH-SY5Y cells [1]; compound 3 µM): 24.35 ± 0.05 %
O/R (%) neuroprotection (SH-SY5Y cells [1]; compound 10 µM): 12.53 ± 0.09%
neuroprotection against Aβ 1–40 (SH-SY5Y cells [2]; at 3 µM and 10 µM): significant and similar neuroprotection
Aβ1–40 (%) neuroprotection (SH-SY5Y cells [2]; compound 3 µM): 42.92 ± 0.20 %
Aβ1–40 (%) neuroprotection (SH-SY5Y cells [2]; compound 10 µM): 41.19 ± 0.18 %
IC50 (hAChE): 4.52 ± 0.24 µM
ORAC [3]: 4.79 TE
ORAC ([3]; listed as 2d): 4.79±0.39 TE
fold more potent than FA (ORAC) ([3]; vs ferulic acid): 1.3 fold
toxicity for SH-SY5Y cells (SH-SY5Y cells [4]): nontoxic

O=c1cc(CO)occ1O [KA, kojic acid, reference compound]
O/R (%) neuroprotection (SH-SY5Y cells [5]): np
O/R (%) neuroprotection (SH-SY5Y cells [1]; compound 3 µM): np
Aβ1–40 (%) neuroprotection (SH-SY5Y cells [2]; compound 3 µM): 65.11 ± 0.20 %
Aβ1–40 (%) neuroprotection (SH-SY5Y cells [6]): 51.56 ± 0.18 %
ORAC [3]: 2.51 TE and 2.51 ± 0.17 TE
